Data reported in patent publication US12038377B2, “Devices, compositions and methods for imaging with Raman scattering” (THE TRUSTEES OF COLUMBIA UNIVERSITY IN THE CITY OF NEW YORK, priority 2013, dated 2024).
Counter-ions that a name gives are not always drawn. Starred links: 1 amine or outer side, 2 acyl side, 3 side chain; linkers in the order of their positions; H or OH if unused. Positions of bridges follow the written chain, without caps; N, C: chain ends. Non-standard residues stand in square brackets, D forms with d. Residues, ends and D or L forms follow the SMILES beside them. Chains are numbered I, II in the order given. *: point of attachment. Actinocin(9to1) = Cc1c2oc3c(C)ccc(C(=O)[*:1])c3nc-2c(C(=O)[*:2])c(N)c1=O; NMeV = CN[C@H](C(=O)O)C(C)C; Cbz = O=C(OCc1ccccc1)*; Sar = CNCC(=O)O

Key:
[1] = system: protein synthesis in HeLa cells; assay: Protein synthesis inhibition in HeLa cells incubated with deuterium-labeled all amino acids (C-D signal); type: cell-based; details: 5 μM anisomycin
Description: FIGS. 34a-34i is a set of exemplary images based on SRS imaging of time-dependent de novo protein synthesis and drug-induced protein synthesis inhibition effect in live HeLa cells incubated in deuterium-labeled all amino acid medium. […] As a control, the amide I (1655 cm^−1) signal remains at a steady state over time (5 hrs—FIG. 34d, 12 hrs—FIG. 34e, 20 hrs—FIG. 34f). FIGS. 34g-34i illustrate ratio images between the SRS image at 2133 cm^−1 (newly synthesized proteins) and the SRS image at 1655 cm^−1 (the amide I band from total proteins), representing the relative new protein fraction with subcellular resolution at each time point (5 hrs—FIG. 34g, 12 hrs—FIG. 34h, 20 hrs—FIG. 34i). The bar represents the ratio ranging from low to high.
The effect of protein synthesis inhibition by chemical drugs can be further tested to validate that the detected C-D signal indeed derives from nascent proteins. […] (See, e.g., FIG. 34k). […] Thus, the detected C-D SRS signal (e.g., FIGS. 34a-34c) can originate from deuterium-labeled nascent proteins, which can vanish upon adding the protein synthesis inhibitor.

mouse ear tissue = assay: SRS imaging of drug delivery into mouse ear tissue
From the text: Sample preparation for drug delivery into mouse ear tissues. […] The amide (1655 cm^−1) and lipid (2845 cm^−1) images have been applied with linear spectral unmixing to eliminate cross talk before composition.
FIG. 17a depicts Raman spectra of a drug cream, Lamisil, containing 1% TH and mouse ear skin tissue. FIGS. 17b-17e illustrate SRS imaging of tissue layers from stratum corneum (z=4 μm) to viable epidermis (z=24 μm), sebaceous gland (z=48 μm) and subcutaneous fat (z=88 μm). To facilitate tissue penetration, DMSO solution containing 1% TH was applied onto the ears of an anesthetized live mouse for 30 min and the dissected ears are imaged afterwards. […] The composite images show protein (1655 cm^−1) and lipid (2845 cm^−1) distributions.
FIGS. 18a and 18b show SRS imaging of the viable epidermis layer (z=20 μm) and the sebaceous gland layer (z=40 μm). […] The composite images show both protein (1655 cm^−1) and lipid (2845 cm^−1) distributions.

HeLa cells [2] = assay: Alkyne-D-glucose uptake and competition in live HeLa cells (SRS); type: cell-based
[3] = system: hippocampal neuronal cultures; assay: Pulse-chase imaging of proteome turnover in hippocampal neuronal cultures under proteasomal stress; type: cell-based
Description: Regular Medium of D12 hippocampal neuronal cultures was replaced by methionine-deficient medium containing 1 mM L-Homopropargylglycine (e.g., HPG, C10186, Invitrogen) for 12 h. The medium was then exchanged to fresh methionine-deficient medium containing 1 mM AHA with or without 10 μM MG132 (e.g., M7449 SIGMA) for another 10 h. Cells were fixed with 4% PFA for 20 min, permeabilized with 0.5% Triton for 15 min. The immuno-staining procedures were the same as described above. Then 1.25 μM MARS2228-azide with Click-iT® Cell Reaction Buffer was added to cells/slices to react with HPG for 20 min. After washing with PBS, 4 μM Alexa 647-alkyne with Click-iT® Cell Reaction Buffer was added to react with AHA for 20 min. Cells were washed with PBS before imaging.
6 technical replicates of 8-colour images were acquired from 3 independent neuronal co-cultures (e.g., the same condition as described above for FIGS. 48d1-48d5) for statistical presentation. […] Cross-checking 8-colour staining, the percentages of astrocytes with aggregations (e.g., the number of astrocytes with aggregations divided by the total number of astrocytes) and the percentages of neurons with aggregations (e.g., the number of neurons with aggregations divided by the total number of neurons) were calculated for each image sets. […]

HeLa cells [4] = details: 2 mM methionine competing with 2 mM Hpg, live HeLa cells
Description: FIG. 12f illustrates live Hela cells incubated with 2 mM Hpg alone (alkyne-on) and with 2 mM methionine (Control). […] For FIG. 12b, FIG. 12d, and FIG. 12f, alkyne-off and amide images display the same set of cells as the alkyne-on images; lipid images capture the same cells as control images.
Sample preparation for SRS imaging of live cells and organisms. For all SRS imaging experiments of HeLa cells (e.g. FIGS. 12a-12j), cells were first Seeded on coverslips with a density of 1×10^5/mL in petri dishes with 2 mL DMEM culture medium for 20 h at 37° C. and 5% CO2. • 1) EdU experiment, DMEM culture medium was then changed to DMEM medium (FBS-free) for 24 h for cell cycle synchronization. After synchronization, medium was replaced back to DMEM culture medium and EdU (10 mM stock in PBS) was simultaneously added to a concentration of 100 μM for 15 h. • 2) EU experiment, EU (100 mM stock in PBS) was added to the DMEM culture medium directly to a concentration of 2 mM for 7 h. • 3) Hpg experiment, DMEM culture medium was then changed to methionine-deficient culture medium for 1 h, followed by supplying 2 mM Hpg (200 mM stock in PBS) in the medium for 24 h. • 4) Propargylcholine and EdU dual-color experiment, DMEM culture medium was changed to DMEM medium (FBS-free) for synchronization. […]

[5] = system: DNA synthesis in HeLa cells; assay: SRS imaging of EdU incorporation during de novo DNA synthesis, control with DNA synthesis inhibitor; type: cell-based; details: 10 mM hydroxyurea, 100 μM EdU, live HeLa cells
[6] = system: RNA synthesis in HeLa cells; assay: SRS imaging of EU incorporation (RNA transcription), control with RNA synthesis inhibitor; type: cell-based; details: 200 nM actinomycin D, 2 mM EU, live HeLa cells
From the text: Next, we studied RNA transcription and turnover using the alkyne-tagged uridine analogue, 5-ethynyl uridine (EU)8 in Hela cells (e.g. FIG. 12a).

SMILES: COc1ccc(C[C@H]2NC[C@H](O)[C@H]2OC(C)=O)cc1 [anisomycin]
- C-D signal in the spontaneous Raman spectrum (2133 cm−1) ([1]; HeLa cells, deuterium-labeled all amino acids): absence of the C-D signal
- C-D SRS imaging signal of newly synthesized proteins ([1]; compared with no inhibitor): drastically weaker signal
- total proteome signal (2940 cm−1 image) ([1]; versus non-drug treated counterpart): remains at a similar level

SMILES: CN(C/C=C/C#CC(C)(C)C)Cc1cccc2ccccc12 [terbinafine hydrochloride]
- tissue penetration pathway (mouse ear tissue; 1% TH in DMSO, mouse ear, 30 min): penetrates into tissues through the lipid phase
- depth of drug delivery imaged inside mouse ear tissue (mouse ear tissue; internal alkyne at 2230 cm−1, 1% TH applied 30 min): about 100 μm

SMILES: C#CCOC1C(O)C(O)OC(CO)C1O [alkyne-D-glucose]
- glucose signal inside cells (uptake) (HeLa cells [2]; 32 mM, live HeLa cells, 10 min to 4 h): increasing over time
- alkyne-D-glucose signal under competition with regular D-glucose (HeLa cells [2]; D-glucose 10 mM, 50 mM and 100 mM): decreases
- alkyne-D-glucose signal under competition with L-glucose (HeLa cells [2]; L-glucose): retained

SMILES: CC(C)C[C@@H](C=O)NC(=O)[C@H](CC(C)C)NC(=O)[C@H](CC(C)C)NC(=O)OCc1ccccc1 [MG132] (Cbz-Leu-Leu-Leu-aldehyde)
- cell type with proteome inclusions ([3]; 10 μM MG132, neuronal co-cultures, n=6): proteome inclusions appeared mostly in astrocytes instead of neurons
- proteome turnover ([3]; 10 μM MG132 in the chase period, 10 h): retarded the proteome turnover

SMILES: CSCC[C@H](N)C(=O)O [methionine, L-methionine]
- Hpg signal (newly synthesized proteins) (HeLa cells [4]): causes the signal to disappear

SMILES: NC(=O)NO [hydroxyurea]
- EdU signal (newly synthesized DNA) [5]: No EdU signal shows up

SMILES: Cc1c2oc3c(C)ccc(C(=O)N[C@@H]4C(=O)N[C@H](C(C)C)C(=O)N5CCC[C@H]5C(=O)N(C)CC(=O)N(C)[C@@H](C(C)C)C(=O)O[C@@H]4C)c3nc-2c(C(=O)N[C@@H]2C(=O)N[C@H](C(C)C)C(=O)N3CCC[C@H]3C(=O)N(C)CC(=O)N(C)[C@@H](C(C)C)C(=O)O[C@@H]2C)c(N)c1=O [actinomycin D] (I: T[dV]P[Sar][NMeV] / II: T[dV]P[Sar][NMeV]; ester I:1-I:C, II:1-II:C; linker I:N-II:N via Actinocin(9to1))
- EU alkyne-on signal (newly synthesized RNA) [6]: nearly disappears
